Test results taken from publication PMC11912122, “Gut in Tube—Continuous Measurement of Metabolic Crosstalk between Cell Populations in Heterogeneous Samples by NMR Imaging” (Analytical Chemistry, 2025).
Square brackets hold non-standard residues; d marks the D form. Peptide text beside a SMILES is read from it. Phe(4-F) = N[C@@H](Cc1ccc(F)cc1)C(=O)O

System: Cocultures of colonocytes (Caco-2, HT29, T84, SW620)
Assay: Cell viability assay (MTT)
Type: cell-based, human
Details: peptide 1.6 mg/mL, 37 °C, 3 h, OD590, % viability vs control, n=3
Method: Individual cell lines (Caco-2, HT29, T84, and SW620) were grown from frozen stocks, prepared at ca. 1 million/mL. Cells were seeded in a T-75 tissue culture flask, passaged once, and matured to ca. 10 million/mL in a T-175 flask in complete media. Cells were rinsed twice with Ca^2+/Mg^2+-free PBS (25 mL, CAS D8537), trypsinized, the trypsin deactivated with P/S-free complete media, all four lineages mixed in a 1:1:1:1 ratio, pelleted (300 rcf, 5 min), and resuspended in alginate (sodium alginate, CAS 9005–38–3, 1% w/v in P/S-free complete media). The cell suspension was extruded through a 200 μL pipet tip dropwise into cold CaCl2 (0.3 M in phosphate-buffered saline, PBS, CAS D8662, 15 °C) under stirring (100 r.p.m.). The cell spheres (Figures S1 and S2, Supporting Information (SI)) were removed from the CaCl2 solution, washed, and stored in P/S-free complete media before further use.
The effect of the peptide on cell viability was measured using a cell proliferation kit (CAS 11465007001). 3-[4,5-Dimethylthiazole-2-yl]-2,5-diphenyltetrazolium bromide (MTT) was solubilized in PBS (5 mg/mL) and filter-sterilized (0.22-μm). Cocultures of colonocytes were grown in phenol red-free complete media in 24-well plates to ca. 50% confluency. […] The absorbance (OD590) in each well was read, and % viability was calculated against the control (Figure S6, SI).

In the case of C[C@H](NC(=O)[C@@H](N)Cc1ccc(F)cc1)C(=O)N[C@@H](Cc1c[nH]cn1)C(=O)N[C@@H](Cc1c[nH]c2ccccc12)C(N)=O [p-F-Phe-Ala-His-Trp] (H-[Phe(4-F)]AHW-NH2), the “effect on colonocyte viability” value is reported as “no significant (p > 0.05) effect and ns”.
